Assays:
[1] = biological target: T1, Human mTOR (Homo sapiens, UniProt P42345); assay: mTOR kinase assay (DELFIA format, purified enzyme); assay type: biochemical; details: His6-S6K substrate, read-out: TOR Kinase IC50
T1 construct: FLAG
Procedure: mTOR Kinase Assay Methods
Human mTOR assays (See Toral-Barza, et al. Biochem Biophys. Res. Commun. 2005 Jun. 24; 332(1):304-10) with purified enzyme are performed in 96-well plates by DELFIA format as follows. Enzymes are first diluted in kinase assay buffer (10 mM HEPES (pH 7.4), 50 mM NaCl, 50 mM β-glycerophosphate, 10 mM MnCl2, 0.5 mM DTT, 0.25 mM microcystin LR, and […]). To each well, 12 μL of the diluted enzyme is mixed briefly with 0.5 μL test inhibitor or control vehicle dimethylsulfoxide (DMSO). The kinase reaction is initiated by adding 12.5 μL kinase assay buffer containing ATP and His6-S6K to give a final reaction volume of 25 μL containing 800 ng/mL FLAG-TOR, […] and […]. The reaction plate is incubated for 2 hours (linear at 1-6 hours) at room temperature with gentle shaking and then terminated by adding 25 μL Stop buffer (20 mM HEPES (pH 7.4), 20 mM EDTA, 20 mM EGTA). The DELFIA detection of the phosphorylated (Thr-389) His6-S6K is performed at room temperature using a monoclonal anti-P(T389)-p70S6K antibody (1A5, Cell Signaling) labeled with Europium-N1-ITC (Eu) (10.4 Eu per antibody, PerkinElmer). The DELFIA Assay buffer and Enhancement solution can be purchased from PerkinElmer. 45 μL of the terminated kinase reaction mixture is transferred to a MaxiSorp plate (Nunc) containing 55 μL PBS. The His6-S6K is allowed to attach for 2 hours after which the wells are aspirated and washed once with PBS. 100 μL of DELFIA Assay buffer with 40 ng/mL Eu-P(T389)-S6K antibody is added. The antibody binding is continued for 1 hour with gentle agitation. The wells are then aspirated and washed 4 times with PBS containing 0.05% Tween-20 (PBST). 100 μL of DELFIA Enhancement solution is added to each well and the plates are read in a PerkinElmer Victor model plate reader. Data obtained is used to calculate enzymatic activity and enzyme inhibition by potential inhibitors.

[2] = test system: MDA468; assay: In vitro cell culture growth assay (MTS); assay type: cell-based; details: Homo sapiens, 72 h, breast line MDA468, three days after drug treatment
Procedure: In Vitro Cell Culture Growth Assay Methods:
Human tumor cell lines used include prostate lines LNCap and PC3MM2, breast lines MDA468, MCF7, renal line HTB44 (A498), colon line HCT116, and ovarian line OVCAR3. Cells were plated in 96-well culture plates. One day following plating, the inhibitors were added to cells. Three days after drug treatment, viable cell densities were determined by metabolic conversion (by viable cells) of the dye MTS, a well-established cell proliferation assay. The assays were performed using an assay kit purchased from Promega Corp. (Madison, Wis.) following the protocol supplied with the kit. The MTS assay results were read in a 96-well plate reader by measuring absorbance at 490 nm. The effect of each treatment was calculated as percent of control growth relative to the vehicle-treated cells grown in the same culture plate. The drug concentration that conferred 50% inhibition of growth was determined as IC50 (μg/ml).

[3] = biological target: PI3 Kinase γ (Homo sapiens, UniProt P48736); assay: Fluorescence polarization assay for PI3K; assay type: biochemical
Procedure: (§1) Fluorescence Polarization Assay for PI3K
(§2) This assay is used to determine the IC50 of compounds of the present invention as it identifies inhibitors of PI3 kinase by measuring inhibition.
(§3) Reaction Buffer: 20 mM HEPES, pH 7.5, 2 mM MgCl2, 0.05% CHAPS; and 0.01% BME (added fresh) Stop/Detection Buffer: 100 mM HEPES, pH 7.5, 4 mM EDTA, 0.05% CHAPS; ATP 20 mM in water; PIP2 (diC8, cat# P-4508) 1 mM in water (MW=856.5); GST-GRP 1.75 mg/mL or 1.4 mg/mL in 10% glycerol; Red detector (TAMRA) 2.5 μM; Plate: Nunc 384 well black polypropylene fluorescence plate.
(§4) The assay is run by placing 5 μL of diluted enzyme per well, then 5 μL of diluted compound (or 9.5 μL enzyme then 0.5 μL compound in DMSO) is added and mixed. Then, 10 μL substrate is added to start the reaction. The samples are incubated 30-60 minutes, then the reaction is stopped by adding 20 μL stop/detector mix. PI3K is diluted with reaction buffer (e.g., 5 μL or 7.5 μL PI3K into 620 μL reaction buffer), and 5 μL of diluted enzyme is used per well. 5 μL reaction buffer or drug diluted in buffer (e.g., 4 μL/100 so final DMSO is 1% in reaction) is added to each. Pipetting up and down mixes the samples. Alternatively, the enzyme can be diluted to 1215 μL. In this case 9.8 μL is added per well and 0.2 μL compound is added in DMSO. To prepare 1 mL of substrate solution, 955 μL reaction buffer, 40 μL PIP2, and 2.5 μL ATP are mixed. 10 μL of substrate is added to each well to start the reaction.
(§5) Stop/detector mix is prepared by mixing 4 μL Red detector and 1.6 μL or 2.0 μL GST-GRP with 1 mL Stop buffer, which results in 10 nM probe and 70 nM GST-GRP). 20 μL of the stop/detector mix is added to each well to stop the reaction. The plates are read after 30-90 minutes keeping the red probe solutions dark. For the zero time point, stop/detector mix is added to the enzyme just before adding substrate. For an extra control, stop/detector mix is added to buffer (no enzyme) and substrate or to just buffer (no substrate). […] The recommended reaction has 0.06 μL per 20 μL (0.015 μg/20 μL) or 0.01125 μg/15 μL or 0.75 μg/mL. Plates are read on machines with filters for Tamra. The units are mP with no enzyme controls reading app 190-220 mP units. Fully active enzyme reduces fluorescence polarization down to 70-100 mP after 30 minutes. An active compound raises the mP values halfway to control or to 120-150 mP units.

[4] = biological target: PI3 Kinase α (Homo sapiens, UniProt P42336); assay: Fluorescence polarization assay for PI3K; assay type: biochemical
Procedure: as §1, §2, §3, §4, §5

[5] = test system: LNCap; assay: In vitro cell culture growth assay (MTS); assay type: cell-based; details: Homo sapiens, 72 h, prostate line LNCap, three days after drug treatment
[6] = test system: acute lymphoblastic leukemia; details: NOS/SCID xenograft mouse model of acute lymphoblastic leukemia; cited from earlier work

PI3 Kinase γ, sequence (P48736 whole entry): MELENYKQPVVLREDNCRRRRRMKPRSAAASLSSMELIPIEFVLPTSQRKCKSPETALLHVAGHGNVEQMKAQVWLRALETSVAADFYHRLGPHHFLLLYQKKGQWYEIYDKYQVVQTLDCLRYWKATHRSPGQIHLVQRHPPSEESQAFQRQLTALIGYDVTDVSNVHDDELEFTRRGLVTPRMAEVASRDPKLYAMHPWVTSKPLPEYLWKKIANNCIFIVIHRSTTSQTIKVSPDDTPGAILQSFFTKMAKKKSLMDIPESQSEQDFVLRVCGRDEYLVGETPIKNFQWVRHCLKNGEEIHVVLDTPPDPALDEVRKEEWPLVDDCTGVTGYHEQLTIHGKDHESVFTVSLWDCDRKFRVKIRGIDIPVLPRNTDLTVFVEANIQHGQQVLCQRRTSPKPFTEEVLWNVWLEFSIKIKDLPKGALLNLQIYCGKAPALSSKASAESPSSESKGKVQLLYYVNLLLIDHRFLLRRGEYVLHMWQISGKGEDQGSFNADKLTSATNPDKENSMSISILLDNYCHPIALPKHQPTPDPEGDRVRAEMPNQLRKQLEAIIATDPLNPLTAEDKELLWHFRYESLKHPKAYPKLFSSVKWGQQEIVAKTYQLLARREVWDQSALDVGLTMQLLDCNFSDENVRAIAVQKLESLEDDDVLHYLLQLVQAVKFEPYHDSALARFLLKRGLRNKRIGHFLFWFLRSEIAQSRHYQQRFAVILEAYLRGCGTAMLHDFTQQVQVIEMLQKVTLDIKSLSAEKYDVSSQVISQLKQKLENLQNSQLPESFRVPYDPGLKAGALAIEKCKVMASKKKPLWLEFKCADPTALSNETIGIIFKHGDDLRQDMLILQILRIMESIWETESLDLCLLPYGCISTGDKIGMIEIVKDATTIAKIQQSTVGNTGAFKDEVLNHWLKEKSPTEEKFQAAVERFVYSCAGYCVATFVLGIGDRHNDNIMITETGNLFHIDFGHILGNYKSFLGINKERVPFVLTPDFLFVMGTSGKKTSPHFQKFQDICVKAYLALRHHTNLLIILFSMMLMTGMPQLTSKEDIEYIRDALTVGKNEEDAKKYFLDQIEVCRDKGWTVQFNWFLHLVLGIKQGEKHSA
PI3 Kinase α, sequence (P42336 whole entry): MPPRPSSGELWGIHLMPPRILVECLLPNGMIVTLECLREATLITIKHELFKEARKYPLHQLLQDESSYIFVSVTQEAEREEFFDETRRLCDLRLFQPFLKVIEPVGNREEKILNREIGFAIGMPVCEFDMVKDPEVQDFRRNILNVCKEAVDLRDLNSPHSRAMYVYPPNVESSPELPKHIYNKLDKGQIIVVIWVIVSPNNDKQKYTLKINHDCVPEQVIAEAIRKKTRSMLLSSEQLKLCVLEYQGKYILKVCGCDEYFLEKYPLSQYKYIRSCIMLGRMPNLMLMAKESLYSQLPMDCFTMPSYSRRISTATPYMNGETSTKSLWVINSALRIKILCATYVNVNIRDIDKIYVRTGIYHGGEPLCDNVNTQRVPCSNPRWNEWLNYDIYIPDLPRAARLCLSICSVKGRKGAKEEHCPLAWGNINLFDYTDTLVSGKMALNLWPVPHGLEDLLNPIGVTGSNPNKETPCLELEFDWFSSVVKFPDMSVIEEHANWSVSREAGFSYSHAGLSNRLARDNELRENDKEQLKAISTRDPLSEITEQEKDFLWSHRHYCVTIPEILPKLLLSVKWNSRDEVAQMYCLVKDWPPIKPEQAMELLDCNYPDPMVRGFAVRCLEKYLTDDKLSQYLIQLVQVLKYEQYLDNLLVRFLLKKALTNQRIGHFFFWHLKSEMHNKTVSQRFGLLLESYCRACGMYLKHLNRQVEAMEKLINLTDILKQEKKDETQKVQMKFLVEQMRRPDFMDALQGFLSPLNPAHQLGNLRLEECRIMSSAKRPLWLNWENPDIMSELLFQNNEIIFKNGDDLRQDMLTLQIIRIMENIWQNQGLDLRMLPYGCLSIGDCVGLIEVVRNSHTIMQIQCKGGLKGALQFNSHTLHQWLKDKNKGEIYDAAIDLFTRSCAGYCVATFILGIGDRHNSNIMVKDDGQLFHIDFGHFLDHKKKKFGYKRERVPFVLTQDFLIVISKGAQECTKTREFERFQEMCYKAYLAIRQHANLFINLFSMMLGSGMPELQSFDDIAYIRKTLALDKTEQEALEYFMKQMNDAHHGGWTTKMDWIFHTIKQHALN
PI3 Kinase α, sequence (P27986 whole entry partner): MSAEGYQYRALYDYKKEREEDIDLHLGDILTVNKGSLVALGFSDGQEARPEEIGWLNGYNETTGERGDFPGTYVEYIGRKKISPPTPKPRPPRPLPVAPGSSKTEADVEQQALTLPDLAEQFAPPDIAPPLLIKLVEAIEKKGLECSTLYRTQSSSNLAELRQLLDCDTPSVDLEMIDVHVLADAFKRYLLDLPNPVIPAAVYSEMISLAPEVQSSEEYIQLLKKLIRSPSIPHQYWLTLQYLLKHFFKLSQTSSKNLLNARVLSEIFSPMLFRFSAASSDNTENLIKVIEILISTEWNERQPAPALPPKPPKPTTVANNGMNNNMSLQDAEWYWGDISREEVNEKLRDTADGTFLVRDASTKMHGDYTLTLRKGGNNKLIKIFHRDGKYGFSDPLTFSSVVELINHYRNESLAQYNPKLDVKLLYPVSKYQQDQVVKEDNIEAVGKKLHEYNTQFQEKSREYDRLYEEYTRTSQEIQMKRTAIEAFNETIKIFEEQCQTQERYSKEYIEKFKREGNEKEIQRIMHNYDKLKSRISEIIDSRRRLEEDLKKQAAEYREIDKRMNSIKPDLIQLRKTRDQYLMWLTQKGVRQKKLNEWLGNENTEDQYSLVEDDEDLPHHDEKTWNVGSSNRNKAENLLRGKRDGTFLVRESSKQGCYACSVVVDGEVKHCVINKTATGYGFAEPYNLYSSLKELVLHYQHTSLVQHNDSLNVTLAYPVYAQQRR

| IC50 [1] [nM] | IC50 [3] [µM] | IC50 [4] [nM] | IC50 [5] [nM] | Compound | IC50 [2] [µM] | activity in xenograft model [6] |
| --- | --- | --- | --- | --- | --- | --- |
| 17 | 1.89 | 48 | 2800 | Oc1cccc(-c2nc(C3=CCOCC3)c3cnn(-c4ccccc4)c3n2)c1 [Compound 1, 3-[4-(3,6-dihydro-2H-pyran-4-yl)-1-phenyl-1H-pyrazolo[3,4-d]pyrimidin-6-yl]phenol] | 8.25 |  |
| 0.75 | > 10 | 66 | 380 | O=C(Nc1ccc(-c2nc(C3=CCOCC3)c3cnn(CC(F)(F)F)c3n2)cc1)Nc1cccnc1 [Compound 8, 1-{4-[4-(3,6-dihydro-2H-pyran-4-yl)-1-(2,2,2-trifluoroethyl)-1H-pyrazolo[3,4-d]pyrimidin-6-yl]phenyl}-3-pyridin-3-ylurea] | 7 |  |
| 8.4 | 1.18 | 2100 | 2800 | CNC(=O)Nc1ccc(-c2nc(C3=CCOCC3)c3cnn(C4CCN(C(=O)c5cccnc5)CC4)c3n2)cc1 [Compound 5, 1-(4-{4-(3,6-dihydro-2H-pyran-4-yl)-1-[1-(pyridin-3-ylcarbonyl)piperidin-4-yl]-1H-pyrazolo[3,4-d]pyrimidin-6-yl}phenyl)-3-methylurea] | 4 |  |
| 230 | 3.02 | 3090 | 5000 | CC(=O)Nc1ccc(-c2nc(C3=CCOCC3)c3cnn(C4CCN(Cc5ccccc5)CC4)c3n2)cc1 [Compound 3, N-{4-[1-(1-benzylpiperidin-4-yl)-4-(3,6-dihydro-2H-pyran-4-yl)-1H-pyrazolo[3,4-d]pyrimidin-6-yl]phenyl}acetamide] | 11 |  |
|  |  |  |  | CO[C@H]1C[C@@H]2CC[C@@H](C)[C@@](O)(O2)C(=O)C(=O)N2CCCC[C@H]2C(=O)O[C@H]([C@H](C)C[C@@H]2CC[C@@H](OC(=O)C(C)(CO)CO)[C@H](OC)C2)CC(=O)[C@H](C)/C=C(\C)[C@@H](O)[C@@H](OC)C(=O)[C@H](C)C[C@H](C)/C=C/C=C/C=C/1C [Torisel] |  | active |
| 2.4 | > 10 | 851 | 210 | CCNC(=O)Nc1ccc(-c2nc(C3=CCOCC3)c3cnn(CC(F)(F)F)c3n2)cc1 [Compound 10, 1-{4-[4-(3,6-dihydro-2H-pyran-4-yl)-1-(2,2,2-trifluoroethyl)-1H-pyrazolo[3,4-d]pyrimidin-6-yl]phenyl}-3-ethylurea] | 0.68 |  |
| 280 | 0.414 | 169 |  | O=c1[nH]c2nc(-c3cccc(O)c3)nc(C3=CCOCC3)c2[nH]1 [Compound 67, 6-(3,6-dihydro-2H-pyran-4-yl)-2-(3-hydroxyphenyl)-7,9-dihydro-8H-purin-8-one] | > 10 |  |
| 3550 | 3.36 | 696 | 170 | O=C(Nc1ccc(-c2nc(C3=CCOCC3)c3cnn(CC(F)(F)F)c3n2)cc1)OCCO [Compound 10a, 2-hydroxyethyl {4-[4-(3,6-dihydro-2H-pyran-4-yl)-1-(2,2,2-trifluoroethyl)-1H-pyrazolo[3,4-d]pyrimidin-6-yl]phenyl}carbamate] | 1.2 |  |
| 17 | 3.23 | 2820 | 900 | CNC(=O)Nc1ccc(-c2nc(C3=CCOCC3)c3cnn(C4CCN(Cc5cccnc5)CC4)c3n2)cc1 [Compound 4, 1-(4-{4-(3,6-dihydro-2H-pyran-4-yl)-1-[1-(pyridin-3-ylmethyl)piperidin-4-yl]-1H-pyrazolo[3,4-d]pyrimidin-6-yl}phenyl)-3-methylurea] | 4.2 |  |
| 670 | > 10 | 855 | 11000 | Oc1cccc(-c2nc(C3CCOCC3)c3cnn(-c4ccccc4)c3n2)c1 [Compound 2, 3-[1-phenyl-4-(tetrahydro-2H-pyran-4-yl)-1H-pyrazolo[3,4-d]pyrimidin-6-yl]phenol] | 50 |  |
| 2.6 | 0.074 | 43 | 96 | O=C(Nc1ccccc1)Nc1ccc(-c2nc(C3=CCOCC3)c3cnn(CC(F)(F)F)c3n2)cc1 [Compound 9, 1-{4-[4-(3,6-dihydro-2H-pyran-4-yl)-1-(2,2,2-trifluoroethyl)-1H-pyrazolo[3,4-d]pyrimidin-6-yl]phenyl}-3-phenylurea] | 0.23 |  |
| 1.4 | 1.01 | 2330 | 72 | O=C(NCCF)Nc1ccc(-c2nc(C3=CCOCC3)c3cnn(CC(F)(F)F)c3n2)cc1 [Compound 7, 1-{4-[4-(3,6-dihydro-2H-pyran-4-yl)-1-(2,2,2-trifluoroethyl)-1H-pyrazolo[3,4-d]pyrimidin-6-yl]phenyl}-3-(2-fluoroethyl)urea] | 0.22 |  |
| 2.4 | 3.03 | 212 | 260 | CNC(=O)Nc1ccc(-c2nc(C3=CCOCC3)c3cnn(CC(F)(F)F)c3n2)cc1 [Compound 6, 1-{4-[4-(3,6-dihydro-2H-pyran-4-yl)-1-(2,2,2-trifluoroethyl)-1H-pyrazolo[3,4-d]pyrimidin-6-yl]phenyl}-3-methylurea] | 0.95 |  |

— US20090192176A1, “1H-PYRAZOLO[3,4-D]PYRIMIDINE, PURINE, 7H-PURIN-8(9H)-ONE, 3H-[1,2,3]TRIAZOLO[4,5-D]PYRIMIDINE, AND THIENO[3,2-D]PYRIMIDINE COMPOUNDS, THEIR USE AS mTOR KINASE AND PI3 KINASE INHIBITORS, AND THEIR SYNTHESES” (Wyeth, priority 2008, published 2009)
